The text below walks through data of ChEMBL document CHEMBL4831531, “Mangostanin Derivatives as Novel and Orally Active Phosphodiesterase 4 Inhibitors for the Treatment of Idiopathic Pulmonary Fibrosis with Improved Safety” (J Med Chem, 2021).

SMILES strings stand for the structures. Calls of active or inactive are those of the source. The rule behind the calls is not given here. Where only a bound is given, the exact number is not on record here.

For one series, the system named is Rattus norvegicus. The experiment in a line: Anti-inflammatory activity in bleomycin-induced idiopathic pulmonary fibrotic activity Sprague-Dawley rat model assessed as decrease in NO production in lungs at 150 mg/kg, po treated for 28 consecutive days. Format: functional, organism-based.
Details: not given
`Cc1ccc(=O)n(-c2ccccc2)c1` [PIRFENIDONE]: the result was Active.

For the next series, the target named is 3',5'-cyclic-AMP phosphodiesterase 4D (Homo sapiens, UniProt Q08499). Description: Inhibition of PDE4D2 (86-413) (unknown origin) expressed in Escherichia coli BL21 assessed as using [3H]-cAMP as substrate measured for 15 mins by liquid scintillation counting analysis.
3',5'-cyclic-AMP phosphodiesterase 4D, sequence (Q08499 whole entry): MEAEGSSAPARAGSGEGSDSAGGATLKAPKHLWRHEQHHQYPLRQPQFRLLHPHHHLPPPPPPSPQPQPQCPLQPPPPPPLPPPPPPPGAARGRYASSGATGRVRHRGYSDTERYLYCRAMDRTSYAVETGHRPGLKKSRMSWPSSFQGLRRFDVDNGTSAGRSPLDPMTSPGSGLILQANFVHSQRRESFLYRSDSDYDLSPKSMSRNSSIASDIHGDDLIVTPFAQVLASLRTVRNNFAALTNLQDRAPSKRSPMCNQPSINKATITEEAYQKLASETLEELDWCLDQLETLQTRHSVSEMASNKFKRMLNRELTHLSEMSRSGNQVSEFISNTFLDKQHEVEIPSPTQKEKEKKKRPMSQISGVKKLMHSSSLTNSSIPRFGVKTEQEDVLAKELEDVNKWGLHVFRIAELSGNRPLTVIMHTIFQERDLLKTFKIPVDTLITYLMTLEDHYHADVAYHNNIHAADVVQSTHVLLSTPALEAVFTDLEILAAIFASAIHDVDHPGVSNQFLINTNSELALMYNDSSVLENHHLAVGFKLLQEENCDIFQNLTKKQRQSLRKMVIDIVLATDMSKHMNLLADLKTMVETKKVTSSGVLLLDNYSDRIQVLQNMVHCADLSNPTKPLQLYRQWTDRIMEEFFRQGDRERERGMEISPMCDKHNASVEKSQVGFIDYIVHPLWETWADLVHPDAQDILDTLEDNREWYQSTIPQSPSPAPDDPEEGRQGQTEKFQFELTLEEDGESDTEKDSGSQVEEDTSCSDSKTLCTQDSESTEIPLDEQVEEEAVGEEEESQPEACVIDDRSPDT
Details: not given
On to `COc1c(OCCCCCCC(=O)O)cc2oc3cc4c(c(O)c3c(=O)c2c1CC=C(C)C)C=CC(C)(C)O4`, for which the IC50 – broadly, the concentration that inhibits the measured activity by half – was 19 nM.

As to `COc1c(OCc2cccc(F)c2)cc2oc3cc4c(c(OC/C=C/C(=O)O)c3c(=O)c2c1CC=C(C)C)C=CC(C)(C)O4`, the half-maximal inhibitory concentration (IC50) was more than 1000 nM. Same read-out and setting: with `COc1c(O)cc2oc3cc4c(c(OCC(=O)O)c3c(=O)c2c1CC=C(C)C)C=CC(C)(C)O4` the figure was 17 nM.

Turning to `CCOC(=O)/C=C/COc1c2c(cc3oc4cc(OCc5ccc(F)cc5)c(OC)c(CC=C(C)C)c4c(=O)c13)OC(C)(C)C=C2`, the IC50 worked out at 24 nM. Same read-out and setting: the same measure for `COc1c(OCc2ccc(F)cc2)cc2oc3cc4c(c(OC/C=C\C(=O)O)c3c(=O)c2c1CC=C(C)C)C=CC(C)(C)O4`: 20 nM.

In the case of `COc1c(OCc2ccc(F)cc2)cc2oc3cc4c(c(OCCCC(=O)O)c3c(=O)c2c1CC=C(C)C)C=CC(C)(C)O4`, the 50% inhibitory concentration (IC50) was determined as 4.2 nM. The same measure, in the same setting: the same measure for `COc1c(O)cc2oc3cc4c(c(OCCCCC(=O)O)c3c(=O)c2c1CC=C(C)C)C=CC(C)(C)O4`: 24 nM; for `COc1c(O)cc2oc3cc4c(c(OC/C=C/C(=O)O)c3c(=O)c2c1CC=C(C)C)C=CC(C)(C)O4`: 494 nM; for `COc1c(O)cc2oc3cc4c(c(OCCCCCCC(=O)O)c3c(=O)c2c1CC=C(C)C)C=CC(C)(C)O4`: 300 nM. The same measure, in the same setting: the same measure for `CCOc1cc2oc3cc4c(c(OC/C=C/C(=O)O)c3c(=O)c2c(CC=C(C)C)c1OC)C=CC(C)(C)O4`: 48 nM. The same measure, in the same setting: the same measure for `COc1c(O)cc2oc3cc4c(c(OCCCCCC(=O)O)c3c(=O)c2c1CC=C(C)C)C=CC(C)(C)O4`: 25 nM; for `COc1c(O)cc2oc3cc4c(c(OCCCC(=O)O)c3c(=O)c2c1CC=C(C)C)C=CC(C)(C)O4`: more than 1000 nM. As for `COc1c(OCc2ccccc2)cc2oc3cc4c(c(OC/C=C/C(=O)O)c3c(=O)c2c1CC=C(C)C)C=CC(C)(C)O4`, the IC50 worked out at 24 nM. As for `COc1c(OCc2cccc(C)c2)cc2oc3cc4c(c(OC/C=C/C(=O)O)c3c(=O)c2c1CC=C(C)C)C=CC(C)(C)O4`, the IC50 is more than 1000 nM. Same read-out and setting: with `COc1cccc(COc2cc3oc4cc5c(c(OC/C=C/C(=O)O)c4c(=O)c3c(CC=C(C)C)c2OC)C=CC(C)(C)O5)c1` the figure was 16 nM. The same measure, in the same setting: with `COc1c(OC(C)C)cc2oc3cc4c(c(OC/C=C/C(=O)O)c3c(=O)c2c1CC=C(C)C)C=CC(C)(C)O4` the figure was 31 nM; with `COc1c(OCc2ccc(S(C)(=O)=O)cc2)cc2oc3cc4c(c(OC/C=C/C(=O)O)c3c(=O)c2c1CC=C(C)C)C=CC(C)(C)O4`, 18 nM; with `CCOC(=O)/C=C/COc1c2c(cc3oc4cc(OCc5cccc(F)c5)c(OC)c(CC=C(C)C)c4c(=O)c13)OC(C)(C)C=C2`, 6.5 nM. Same read-out and setting: the same measure for `COc1cc2oc3cc4c(c(OC/C=C/C(=O)O)c3c(=O)c2c(CC=C(C)C)c1OC)C=CC(C)(C)O4`: 30 nM.

Another series concerns Rattus norvegicus. Description: Anti-idiopathic pulmonary fibrotic activity in bleomycin-induced Sprague-Dawley rat model assessed as decrease in fibronectin expression of lungs at 150 mg/kg, po treated for 28 consecutive days by Western blot analysis. In kind it is functional, organism-based.
Details: not given
A general note: Immunoblotting shows a protein as a band on a membrane.
`Cc1ccc(=O)n(-c2ccccc2)c1` [PIRFENIDONE]: the result was Active.

The next series concerns Rattus norvegicus. Description: Anti-idiopathic pulmonary fibrotic activity in bleomycin-induced Sprague-Dawley rat model assessed as prevention of structural damage of lungs at 150 mg/kg, po treated for 28 consecutive days by Hematoxylin and eosin staining based assay relative to control. Format: functional, organism-based.
Details: not given
For `Cc1ccc(=O)n(-c2ccccc2)c1` [PIRFENIDONE], the outcome was Active.

In a further series the test system is Rattus norvegicus. Description: Anti-idiopathic pulmonary fibrotic activity in bleomycin-induced Sprague-Dawley rat model assessed as decrease in alpha-smooth muscle actin protein expression of lungs at 150 mg/kg, po treated for 28 consecutive days by Western blot analysis. In kind it is functional, organism-based.
Details: not given
For `Cc1ccc(=O)n(-c2ccccc2)c1` [PIRFENIDONE], the result was Active.

A further series concerns Rattus norvegicus. Description: Anti-idiopathic pulmonary fibrotic activity in bleomycin-induced Sprague-Dawley rat model assessed as inhibition of collagen deposition around trachea and cell hyperplasia at 150 mg/kg, po treated for 28 consecutive days by Hematoxylin and eosin staining based assay relative to control. Format: functional.
Details: not given
Consider `Cc1ccc(=O)n(-c2ccccc2)c1` [PIRFENIDONE], for which the inhibition in vivo (as a rule, how much of the control response was suppressed) at 150 mg/kg was found to be 100%.

Tested on in another series: not listed separately
Description: Toxicity in dog assessed as emesis at 1 mg/kg, po. The conditions noted are these: in vivo. In kind it is organism-based, Canis lupus familiaris.
Turning to `COc1ccc(C2CNC(=O)C2)cc1OC1CCCC1` (stereo not given) [ROLIPRAM], the Activity entry is recorded as “Toxic”.
